In ChEMBL document CHEMBL3351528, “Targeting dopamine D3 and serotonin 5-HT1A and 5-HT2A receptors for developing effective antipsychotics: synthesis, biological characterization, and behavioral studies” (J Med Chem, 2014):
Calls of active or inactive are those of the source. The calls are words filed in the database; no cut-off is given here.

What was measured:
[1] = species on record: Mus musculus; test: animal or person; conditions: NMRI, sc; for minimal effective dose: read-out: MED
Description: Antipsychotic-like activity in sc dosed NMRI mouse assessed as reduction in methamphetamine-induced locomotor activity dosed 15 to 30 mins before administration of methamphetamine measured for 60 mins

[2] = system: Mus musculus; test: Antipsychotic-like activity in NMRI mouse assessed as reduction in […]-induced locomotor activity at 1 mg/kg, sc dosed 15 to 30 mins before administration of methamphetamine measured for 60 mins; format: functional, organism-based; parameters: dose 1 mg/kg
[3] = system: Mus musculus; test: Toxicity in mouse assessed as induction of memory impairment by measuring […] to enter dark compartment at 10 mg/kg, po administered 30 mins before training by passive avoidance test; format: organism-based; parameters: dose 10 mg/kg, route oral; conditions: in vivo, 0.5 h
[4] = species on record: Mus musculus; test: animal or person; conditions: NMRI, sc
Description: Antipsychotic-like activity in sc dosed NMRI mouse assessed as reduction in PCP-induced locomotor activity dosed 15 to 30 mins before administration of methamphetamine measured for 60 mins

[5] = species on record: Mus musculus; conditions: in vivo, sc, 0.5 h
Description: Effect on spontaneous exploratory locomotor activity in sc dosed NMRI mouse measured for 30 mins with activity counts each 5 mins

[6] = system: Mus musculus; test: Effect on spontaneous locomotor activity in mouse at 10 mg/kg, ip; format: ADME, organism-based; parameters: dose 10 mg/kg, route intraperitoneal; conditions: in vivo
[7] = system: Mus musculus; test: Anxiolytic activity in mouse at 10 mg/kg, ip dosed 30 mins before test by marble burying method; format: functional, organism-based; parameters: dose 10 mg/kg
[8] = target: T1, 5-hydroxytryptamine receptor 2C (Homo sapiens, UniProt P28335)
T1 sequence (P28335 whole entry): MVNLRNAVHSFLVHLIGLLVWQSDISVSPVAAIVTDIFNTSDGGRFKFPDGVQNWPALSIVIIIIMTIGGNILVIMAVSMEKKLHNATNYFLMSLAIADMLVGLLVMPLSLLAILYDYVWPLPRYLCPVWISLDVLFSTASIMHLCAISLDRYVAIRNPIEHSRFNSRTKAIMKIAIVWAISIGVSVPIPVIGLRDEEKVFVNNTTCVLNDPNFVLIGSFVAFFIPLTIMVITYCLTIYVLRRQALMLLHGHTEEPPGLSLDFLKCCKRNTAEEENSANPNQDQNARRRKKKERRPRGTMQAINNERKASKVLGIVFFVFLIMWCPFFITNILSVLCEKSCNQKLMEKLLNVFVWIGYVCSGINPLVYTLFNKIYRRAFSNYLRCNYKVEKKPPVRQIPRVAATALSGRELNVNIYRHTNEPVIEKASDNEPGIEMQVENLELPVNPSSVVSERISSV
Description: Binding affinity to 5HT2C receptor (unknown origin)

[9] = target: T2, 5-hydroxytryptamine receptor 1A (Homo sapiens, UniProt P08908)
T2 sequence (P08908 whole entry): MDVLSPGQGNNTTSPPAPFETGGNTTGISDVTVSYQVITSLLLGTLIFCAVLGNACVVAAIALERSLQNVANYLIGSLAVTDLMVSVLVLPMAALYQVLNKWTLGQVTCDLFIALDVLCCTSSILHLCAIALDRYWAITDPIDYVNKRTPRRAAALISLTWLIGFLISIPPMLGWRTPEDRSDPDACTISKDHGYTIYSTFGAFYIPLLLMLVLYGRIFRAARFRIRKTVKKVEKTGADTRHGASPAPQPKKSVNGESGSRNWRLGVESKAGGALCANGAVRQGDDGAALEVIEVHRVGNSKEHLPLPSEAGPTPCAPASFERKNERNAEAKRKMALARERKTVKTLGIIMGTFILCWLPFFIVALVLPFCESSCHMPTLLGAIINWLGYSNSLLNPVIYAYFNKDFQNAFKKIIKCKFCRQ
Description: Binding affinity to 5HT1A receptor (unknown origin)

[10] = target: D(2) dopamine receptor (Homo sapiens, UniProt P14416)
Sequence of D(2) dopamine receptor (P14416 whole entry): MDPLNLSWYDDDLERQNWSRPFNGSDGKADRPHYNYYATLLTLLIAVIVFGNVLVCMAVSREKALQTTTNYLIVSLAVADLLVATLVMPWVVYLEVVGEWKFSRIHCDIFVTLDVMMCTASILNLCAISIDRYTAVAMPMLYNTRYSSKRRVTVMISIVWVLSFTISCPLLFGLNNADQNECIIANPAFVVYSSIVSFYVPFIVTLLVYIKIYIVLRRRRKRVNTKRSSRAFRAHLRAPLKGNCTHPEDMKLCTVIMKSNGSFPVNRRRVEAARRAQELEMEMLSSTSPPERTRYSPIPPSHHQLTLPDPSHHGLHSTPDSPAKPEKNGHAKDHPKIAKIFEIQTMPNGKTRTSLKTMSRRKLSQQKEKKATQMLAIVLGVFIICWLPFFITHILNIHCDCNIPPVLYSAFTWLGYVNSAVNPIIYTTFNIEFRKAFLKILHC
Description: Binding affinity to dopamine D2 receptor (unknown origin)

[11] = system: Mus musculus; test: Antipsychotic-like activity in sc dosed NMRI mouse assessed as reduction in MK801-induced locomotor activity dosed 15 to 30 mins before administration of MK801 measured for 60 mins; format: functional; conditions: read-out: MED
[12] = target: 5-hydroxytryptamine receptor 2A (Homo sapiens, UniProt P28223)
Sequence of 5-hydroxytryptamine receptor 2A (P28223 whole entry): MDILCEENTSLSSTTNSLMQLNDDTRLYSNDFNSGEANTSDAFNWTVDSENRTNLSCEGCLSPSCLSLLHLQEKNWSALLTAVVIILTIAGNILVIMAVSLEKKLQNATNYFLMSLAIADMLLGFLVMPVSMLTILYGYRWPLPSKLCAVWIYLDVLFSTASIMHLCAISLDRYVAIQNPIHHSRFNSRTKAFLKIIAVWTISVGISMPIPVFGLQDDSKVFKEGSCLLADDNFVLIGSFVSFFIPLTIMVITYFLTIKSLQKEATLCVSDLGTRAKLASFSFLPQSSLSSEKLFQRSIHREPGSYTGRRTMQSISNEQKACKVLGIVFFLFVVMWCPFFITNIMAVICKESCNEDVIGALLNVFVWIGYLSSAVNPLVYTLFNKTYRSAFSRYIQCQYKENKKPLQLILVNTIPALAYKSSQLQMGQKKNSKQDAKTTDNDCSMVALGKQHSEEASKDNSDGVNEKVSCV
Description: Binding affinity to 5HT2A receptor (unknown origin)

[13] = system: Mus musculus; test: Toxicity in NMRI mouse assessed as induction of tremors at 10 mg/kg, sc dosed 30 mins before test; format: organism-based; parameters: dose 10 mg/kg, route subcutaneous; conditions: in vivo, 0.5 h
[14] = target: D(3) dopamine receptor (Homo sapiens, UniProt P35462)
Sequence of D(3) dopamine receptor (P35462 whole entry): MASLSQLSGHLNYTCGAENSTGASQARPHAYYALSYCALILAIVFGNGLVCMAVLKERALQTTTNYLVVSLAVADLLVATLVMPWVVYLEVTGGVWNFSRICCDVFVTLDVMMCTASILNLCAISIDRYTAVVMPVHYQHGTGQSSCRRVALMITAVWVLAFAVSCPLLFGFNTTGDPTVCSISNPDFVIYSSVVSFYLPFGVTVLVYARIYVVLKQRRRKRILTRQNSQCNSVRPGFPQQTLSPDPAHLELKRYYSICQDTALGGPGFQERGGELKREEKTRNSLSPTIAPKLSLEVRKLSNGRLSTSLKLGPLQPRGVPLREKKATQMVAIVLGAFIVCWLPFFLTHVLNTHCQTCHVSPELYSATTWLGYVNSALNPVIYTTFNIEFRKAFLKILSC
Description: Binding affinity to dopamine D3 receptor (unknown origin)

[15] = system: Mus musculus; test: Toxicity in NMRI mouse assessed as induction of catalepsy at 30 mg/kg, sc dosed 30 mins before test; format: organism-based; parameters: dose 30 mg/kg, route subcutaneous; conditions: in vivo, 0.5 h

Structure (SMILES) | ED50 [1] | Activity [2] | Activity [3] | ED50 [4] | ED50 [5] | Activity [6] | Activity [7] | minimal effective dose [1] | Ki [8] | Ki [9] | Ki [10] | minimal effective dose [11] | Ki [12] | minimal effective dose ([4]; read-out: MED) | Activity [13] | MED [5] | Ki [14] | Activity [15]
CN1CCN(C2=Nc3cc(Cl)ccc3Nc3ccccc32)CC1 [CLOZAPINE] | 1.1 mg/kg | Active | Toxic | 2.5 mg/kg | 2.4 mg/kg |  |  |  |  |  |  |  |  |  |  |  |  | 
CNC1=Nc2ccc(Cl)cc2C(c2ccccc2)=[N+]([O-])C1.Cl [CHLORDIAZEPOXIDE HYDROCHLORIDE] |  |  |  |  |  | Non-toxic | Active |  |  |  |  |  |  |  |  |  |  | 
O=C(NCCCCN1CCN(c2ccccc2)CC1)c1cc2ccccc2o1 |  |  |  |  |  |  |  | ≤ 1 mg/kg | > 1000 nM | 30 nM | > 1000 nM | 3 mg/kg | 392 nM | ≤ 0.3 mg/kg | Toxic | <= 0.3 mg kg-1 | 4 nM | 
Cc1cccc(N2CCN(CCCCNC(=O)c3cc4ccccc4cn3)CC2)c1 |  |  |  |  |  |  |  | ≤ 3 mg/kg | 169 nM | 8 nM | 286 nM | 3 mg/kg | 15 nM |  |  | <= 3 mg kg-1 | 5 nM | Non-toxic
